Reference: publication PMC7395068, “The evolution of strategies to minimise the risk of human drug-induced liver injury (DILI) in drug discovery and development” (Archives of Toxicology, 2020)
Read-outs that look alike come from different tables or passages of the source.

Legend:
[1] = cited from earlier work
[2] = test system: HepG2 C3A spheroid, BSEP, Glu/Gal in HepG2 cells, bioactivation; conditions: cited from earlier work
[3] = test system: THLE or HepG2 cells, isolated mitochondria, BSEP; conditions: cited from earlier work
[4] = test system: human hepatocytes; conditions: cited from earlier work
[5] = test system: PHH; conditions: cited from earlier work
[6] = test system: HepG2 cells; conditions: cited from earlier work
[7] = ref Chen 2011; cited from earlier work
[8] = plasma free fraction; cited from earlier work
[9] = read-out: Human plasma Cmax; total plasma Cmax.tot, median of 9 literature references; cited from earlier work
[10] = test system: rBsep; conditions: In vitro Assay; ref Dawson 2012; cited from earlier work
[11] = test system: HepG2 cells, primary human hepatocytes; conditions: In vitro Assay; ref Garside 2014; cited from earlier work
[12] = test system: THLE-Null and THLE-3A4 cells; conditions: In vitro Assay; ref Gustafsson 2014; cited from earlier work
[13] = test system: HepaRG spheroids; assay: Combined HCI (HCS) and cellular ATP 3D assay in HepaRG spheroids; conditions: for AC50 / minimal effective concentration: Homo sapiens
[14] = Plasma free fraction (fu) and unbound Cmax (Cmax,u); assay type: in vitro ADME, human; conditions: unbound plasma Cmax
Description: The prediction of DILI severity was evaluated further using the 3D combined HCI assays using plasma-free fraction. The majority of fu values were obtained from literature, when unavailable in-house prediction was utilised. Unbound plasma Cmax concentrations (Cmax,u) were derived by multiplying total plasma Cmax with the corresponding free fraction (fu) for each compound.

[15] = test system: primary human hepatocytes, NIH3T3 fibroblasts, BSEP, CYP3A4; conditions: cited from earlier work
[16] = cited from earlier work; remark: listed apart in the source
[17] = test system: hLiMTs; conditions: cited from earlier work
[18] = test system: PHH spheroids; conditions: cited from earlier work
[19] = test system: hLiMTs; assay: Combined HCI (HCS) and cellular ATP 3D assay in hLiMTs; conditions: for AC50 / minimal effective concentration: Homo sapiens
[20] = Modeled in vitro assays (cytotoxicity, mitochondrial dysfunction, BSEP), ref Aleo et al. 2019
[21] = In vitro Assay, ref Proctor 2017
[22] = In vitro Assay, ref Persson 2013
[23] = Microtissue model structural based (HCI), combined HCS and ATP, MEC < 25 × Cmax.tot cut-off
[24] = In vitro Assay, ref Schadt 2015

For `CCc1nn(CCCN2CCN(c3cccc(Cl)c3)CC2)c(=O)n1CCOc1ccccc1` [nefazodone, reference compound], the “DILI severity category (Chen et al. [2016])” value ([1]; LTKB DILIrank category, ref Chen et al. 2016) is listed as “Most”, the “DILI severity category (Chen 2016)” value ([1]; human DILI classification, LTKB DILIrank, ref Chen et al. 2016) is listed as “Most” and the DILI severity category ([1]; human DILI severity, ref Chen et al.) is listed as “Most”. For the same compound, the “DILI +VE (5-8), DILI -VE (-4)” value ([1]; ref Chen 2016) was “+VE”, the DILI severity category ([1]; ref Chen 2016) was “vMost-DILI-Concern” and the “Bayesian Machine Learning DILI prediction, Williams (2019)” value ([2]; Bayesian modeling, ref Williams et al. 2019) was “+VE”. The “Bayesian Machine Learning” value ([2]; In vitro Assay, ref Williams 2019) was “+VE”, the “Partition Hybrid HRM Score” value ([3]; In vitro Assay, ref Aleo 2019) was “+VE” and the “Ro2 Hybrid HRM Score” value ([3]; In vitro Assay, ref Aleo 2019) was “+VE”. For the same compound, the “Partition Hybrid HRM Score ≥4, Aleo (2019)” value [3, 20] was “+VE (Partition Hybrid HRM Score ≥4)”, the “Partition Hybrid HRM Score ≥8, Aleo (2019)” value [3, 20] was “+VE (Partition Hybrid HRM Score ≥8)” and the “Rule of Two hybrid HRM Score ≥3, Aleo (2019)” value [3, 20] was “+VE (Rule of Two hybrid HRM Score ≥3)”. The “Rule of Two hybrid HRM Score ≥8, Aleo (2019)” value [3, 20] was “+VE (Rule of Two hybrid HRM Score ≥8)”, the “Structural based (HCI)” value ([4]; In vitro Assay, ref Xu 2008) was “+VE” and the “DILI in vitro assay prediction, Xu (2008)” value ([4]; Structural based (HCI), human hepatocytes, ref Xu et al. 2008) was “+VE”. For the same compound, the “PHH/100xCmax, Proctor (2017)” value ([5]; 2D PHH, ATP, IC50 < 100 × Cmax.tot, ref Proctor et al. 2017) was “+VE (IC50 < 100 × Cmax.tot)”, the “PHH/100uM, Proctor (2017)” value ([5]; 2D PHH, ATP, IC50 threshold 100 µM, ref Proctor et al. 2017) was “+VE (IC50 threshold of 100 µM)” and the “PHH ATP <100uM” value [5, 21] was “+VE (IC50 threshold of 100 µM)”. The Cluser analysis [6, 22] was “+VE”, the “Structural based (HCI)” value [6, 22] was “+VE” and the “DILI in vitro assay prediction, Persson (2013)” value ([6]; Structural based (HCI), HepG2, ref Persson et al. 2013) was “+VE”. For the same compound, the “DILI Score (FDA) (1-8)” value [7] was 8, the fu [8] was 0.010 and the Cmax [9] was 4.25 µM. For the same compound, the “Inhibition of rBsep cutoff<1& cmax u>.2” value [10] was “+VE”, the “Inhibition of rBsep cutoff<3” value [10] was “+VE” and the “Cluster 1-6 +VE Assay” value [11] was “+VE”. For the same compound, the THLE-Null [12] was “+VE”, the THLE-Null/3A4 [12] was “+VE” and the “HepaRG <25x Avg Cmax ATP” value ([13]; HepaRG, ATP endpoint, cut-off <25x Avg Cmax) was “+ve”. The “HepaRG <100x Avg Cmaxu ATP” value ([13]; HepaRG, ATP endpoint, cut-off <100x Avg Cmaxu) was “-ve”, the “HepaRG <25x Avg Cmax HCS” value ([13]; HepaRG, HCS endpoints, cut-off <25x Avg Cmax) was “+ve” and the “HepaRG <100x Avg Cmaxu HCS” value ([13]; HepaRG, HCS endpoints, cut-off <100x Avg Cmaxu) was “-ve”. The “HepaRG <25x Avg Cmax All” value ([13]; HepaRG, all endpoints (ATP and HCS), cut-off <25x Avg Cmax) was “+ve”, the “HepaRG Cmax max All” value ([13]; HepaRG, all endpoints, Cmax max used) was “+ve” and the “HepaRG Cmax min All” value ([13]; HepaRG, all endpoints, Cmax min used) was “+ve”. For the same compound, the “HepaRG <10 uM All” value ([13]; HepaRG, all endpoints, cut-off <10 uM) was “+ve (<10 uM)”, the “HepaRG <100x Avg Cmaxu All” value ([13]; HepaRG, all endpoints, cut-off <100x Avg Cmaxu) was “-ve” and the AC50 ([13]; HepaRG, read-out: ATP endpoint AC50) was 19.4 µM. For the same compound, the minimal effective concentration ([13]; HepaRG, read-out: ATP endpoint MEC) was 11.6 µM, the AC50 ([13]; HepaRG, read-out: HCS endpoint AC50) was 23.8 µM and the minimal effective concentration ([13]; HepaRG, read-out: HCS endpoint MEC) was 5.67 µM. The “DILI prediction HepaRG spheroids (HCS-MEC)” value [13, 23] was “+VE (MEC < 25 × Cmax.tot cut-off)”, the “Human plasma Cmax,u” value [14] was 0.043 µM and the “DILI in vitro assay prediction, Schadt (2015)” value ([15]; BSEP & Metabolism based, ref Schadt et al. 2015) was “+VE”. For the same compound, the “Cellular toxicity (3T3 cells)” value [15, 24] was “-VE”, the “Combined Assay” value [15, 24] was “+VE” and the “GSH adduct HML” value [15, 24] was “+VE”. For the same compound, the Hepatocyte cellular toxicity [15, 24] was “+VE”, the “MitoTox 3T3” value [15, 24] was “+VE” and the “TDI CYP3A4” value [15, 24] was “+VE”. For the same compound, the hBSEP inhibition [15, 24] was “+VE”, the “Assigned DILI category” value ([16]; Chen et al. 2016 or literature alignment, ref Chen et al. 2016) was 3 and the “In vivo DILI” value ([16]; […]) was “+VE”. For the same compound, the “In vivo DILI” value ([16]; ref Aleo 2019) was “+VE”, the “In vivo DILI” value ([16]; ref Dawson 2012) was “+VE” and the “In vivo DILI” value ([16]; ref Garside 2014) was “+VE”. The “In vivo DILI” value ([16]; ref Gustafsson 2014) was “+VE”, the “In vivo DILI” value ([16]; ref Persson 2013) was “+VE” and the “In vivo DILI” value ([16]; ref Proctor 2017) was “+VE”. For the same compound, the “In vivo DILI” value ([16]; ref Schadt 2015) was “+VE”, the “In vivo DILI” value ([16]; ref Vorrink 2018) was “+VE” and the “In vivo DILI” value ([16]; ref Williams 2019) was “+VE”. The “In vivo DILI” value ([16]; ref Xu 2008) was “+VE”, the “hLiMTs ATP <100uM” value [17, 21] was “+VE (IC50 threshold of 100 µM)” and the “hLiMTs/100xCmax, Proctor (2017)” value ([17]; hLiMTs, ATP, IC50 < 100 × Cmax.tot, ref Proctor et al. 2017) was “+VE (IC50 < 100 × Cmax.tot)”. For the same compound, the “hLiMTs/100uM, Proctor (2017)” value ([17]; hLiMTs, ATP, IC50 threshold 100 µM, ref Proctor et al. 2017) was “+VE (IC50 threshold of 100 µM)”, the “hLiMTs ATP <20 x Cmax” value ([18]; In vitro Assay, ref Vorrink 2018) was “+VE (IC20 < 20 × Cmax.tot cut-off)” and the “DILI in vitro assay prediction, Vorrink (2018)” value ([18]; PHH spheroids, ATP, 14 days, IC20 < 20 × Cmax.tot, ref Vorrink et al. 2018) was “+VE (IC20 < 20 × Cmax.tot cut-off)”. It also gave an AC50 ([19]; read-out: ATP endpoint AC50) of 12.1 µM, a minimal effective concentration ([19]; read-out: ATP endpoint MEC) of 8.98 µM and an AC50 ([19]; read-out: HCS endpoint AC50) of 23.4 µM. For the same compound, the minimal effective concentration ([19]; read-out: HCS endpoint MEC) was 13.8 µM, the “DILI prediction hLiMTs (HCS-MEC)” value [19, 23] was “+VE (MEC < 25 × Cmax.tot cut-off)” and the “hLiMTs <25x Avg Cmax ATP” value ([19]; hLiMTs, ATP endpoint, cut-off <25x Avg Cmax) was “+ve”. The “hLiMTs <100x Avg Cmaxu ATP” value ([19]; hLiMTs, ATP endpoint, cut-off <100x Avg Cmaxu) was “-ve”, the “hLiMTs <25x Avg Cmax HCS” value ([19]; hLiMTs, HCS endpoints, cut-off <25x Avg Cmax) was “+ve” and the “hLiMTs <100x Avg Cmaxu HCS” value ([19]; hLiMTs, HCS endpoints, cut-off <100x Avg Cmaxu) was “-ve”. For the same compound, the “hLiMTs <25x Avg Cmax All” value ([19]; hLiMTs, all endpoints (ATP and HCS), cut-off <25x Avg Cmax) was “+ve”, the “hLiMTs Cmax max All” value ([19]; hLiMTs, all endpoints, Cmax max used) was “+ve” and the “hLiMTs Cmax min All” value ([19]; hLiMTs, all endpoints, Cmax min used) was “+ve”. For the same compound, the “hLiMTs <10 uM All” value ([19]; hLiMTs, all endpoints, cut-off <10 uM) was “+ve (<10 uM)” and the “hLiMTs <100x Avg Cmaxu All” value ([19]; hLiMTs, all endpoints, cut-off <100x Avg Cmaxu) was “-ve”.
